Converted amounts (≈) assume the structure as drawn. “And” between values parts separate entries of the source, which are not always exact repeats. Equal entries are not always repeated. Structures can show the parent of a compound that is named as a salt. Where two headings read alike, the source gives them in different places.
Tests used:
[1] = system: isolated heart of a gumea-pig; experiment: Vaso-dilatatory activity, coronary flow of isolated perfused heart; settings: for activation at 10 µg/mL: Locke, 37° C., read-out: Percentage flow increase P (X); for P (X) / P (R): relative to Dipyridamole, both 1×10^-5 g/ml
Procedure: The coronary flow is recorded, by means of an electronic device fitted with a Fleish totaliser, before and after addition of the substance X under study (concentration: 1×10^-5 g/ml), the reference product (R) being 2,6-bis (diethanolamino) 4,8-dipiperidinopyrimido[5,4-d]pyrimidine (known under the trademark "Dipyridamole") used at a concentration of 1×10^-5 g/ml.
The percentage flow increase P was calculated at the climax of the activity of X or R.

[2] = system: human blood-plaques (aggregation with adrenaline); experiment: Inhibition of blood-plaque aggregation induced by adrenaline; type: cell-based; settings: for inhibition at 25 µg/mL: Homo sapiens, C (X)=2.5×10^-5 g/ml, read-out: Inhibitory activity of the blood-plaque aggregation, ADRENALINE, a (X); for Ratio of a (X) to a (R), ADRENALINE (head drawn): X 2.5×10^-5 g/ml, R 5×10^-4 g/ml
Source text: (§1) The blood plaques used for these studies were human blood-plaques introduced into the test in the form of blood-plaque rich plasmas (B.P.R.P.).
(§2) These latter were obtained as water-repellent material by slow centrifugation from human blood samples.
(§3) The study of blood-plaque aggregation was made by means of an aggregate-meter with continuous agitation and graphic recording according to the conventional method. (PROST R. S., SOUVERAIN C. H., DOUMENC J., Etude de l'agregation plaquettaire a l'aide de l'agregametre de MUSTARD-Coagulation, 1971, 4, 2, 145-151).
(§4) The agents employed for inducing aggregation were diphosphoric adenosine acid (D.P.A.), 1-(3',4'-di-hydroxyphenyl)-2-methylamino ethanol (adrenaline) and collagene. All these reactants were prepared from mother solutions diluted in a Michaelis' buffer. Their concentration in the test may vary according to the affinity of the blood-plaques.
(§5) An optimum concentration is thus sought by successive tests on the same B.P.R.P.
(§6) The inhibitory activity on the aggregation was evaluated by addition of the product under study to the B.P.R.P. before introduction of the aggregating agent.
(§7) The concentrations of compounds of formula I (X) in the B.P.R.P. are: C (X)=2.5×10^-5 g/ml for aggregation with D.P.A. and adrenaline, and C (X)=2×10^-5 g/ml for collagene.
(§8) The reference product (R) is 2,6-bis (diethanolamino)-4,8-dipiperidinopyrimido[5,4-d]pyramidine (known under the trademark "Dipyridamole") used in the concentration C (R)=5×10^-4 g/ml for aggregation with D.P.A. and adrenaline and C (R)=2×10^-4 g/ml for aggregation with collagene.
(§9) The following table IV indicates the activity of some compounds of formula I: a (X) the activity of the reference product: a (R) and the different values of the ratio: [formula]

[3] = system: human blood-plaques (aggregation with collagene); experiment: Inhibition of blood-plaque aggregation induced by collagene; type: cell-based; settings: for Inhibitory activity of the blood-plaque aggregation, COLLAGENE, a (X) / inhibition at 20 µg/mL: C (X)=2×10^-5 g/ml; for Ratio of a (X) to a (R), COLLAGENE (head drawn): X 2×10^-5 g/ml, R 2×10^-4 g/ml; for inhibition at 20 µg/mL: Homo sapiens, read-out: Inhibitory activity of the blood-plaque aggregation, COLLAGENE, a (X)
Source text: as §1, §2, §3, §4, §5, §6, §7, §8, §9

[4] = Acute toxicity, oral, mouse (LD 50, Miller and Tainter); type: in vivo; settings: in vivo, death rate checked for seven days, read-out: 50% lethal dose (LD 50) (converted)
Procedure: The acute toxicity of the compounds of formula (I) were evaluated orally (esophagean probe) on a mouse deprived of food 18 hours before the beginning of the test. The products were placed in suspension in a solution of dilute carboxymethyl cellulose. Calculation of the 50 lethal dose (LD 50) was effected according to the method of Miller and Tainter (Miller L. C., Tainter M. L., Proc. Soc. Exptl. Biol. Med. 1944, 57, 261-264).
The death rate was checked for seven days following the treatment.
Table III gives the 50% lethal doses (LD 50) in milligrammes per kilogramme body weight.

[5] = system: rat's isolated duodenum; experiment: Spasmolytic activity on isolated duodenum contracted by barium chloride (Magnus); settings: for IC50: Rattus norvegicus, barium chloride contraction, Tyrode, 38° C., read-out: Spasmolytic activity ED 50 (X); for ED 50 (R) / ED 50 (X): relative to papaverine hydrochloride
Procedure: The spasmolytic activity was studied on a rat's isolated duodenum maintained in a survival medium of an aerated Tyrode solution heated to 38° C. according to the technique of Magnus (Magnus R.-Archivs ges. Physiol., 1905, 180, 1-71).
The contracting agent used was barium chloride, the reference antogonist agent being papaverine hydrochloride (R). The average activity of the compounds of formula I (X) in comparison with that of the reference agent was expressed by calculating the ratio of the 50 efficient doses (ED 50) determined graphically on logarithmic paper: [formula]
For example: a substance having a relative activity expressed by the FIG. 2 presents an activity equal to twice that of papaverine hydrochloride.

[6] = system: human blood-plaques (aggregation with D.P.A.); experiment: Inhibition of blood-plaque aggregation induced by D.P.A.; type: cell-based; settings: for Ratio of a (X) to a (R), D.P.A. (head drawn): X 2.5×10^-5 g/ml, R 5×10^-4 g/ml; for inhibition at 25 µg/mL: Homo sapiens, read-out: Inhibitory activity of the blood-plaque aggregation, D.P.A., a (X)
Source text: as §1, §2, §3, §4, §5, §6, §7, §8, §9

[7] = system: phenylparaquinone (P.P.Q.) painful syndrome in a mouse; experiment: Analgesic and anti-inflammatory activity, phenylparaquinone (P.P.Q.) painful syndrome; type: in vivo; settings: for Analgesic and anti-inflammatory activity, percentage activity a(X): 50 mg/kg digestively; for a(X) / a(R), analgesic and anti-inflammatory activity: X 50 mg/kg, R (Galfenine) 25 mg/kg
Procedure: The intraperitoneal injection of phenylparaquinone (P.P.Q.) in a mouse causes the appearance of a painful syndrome appearing within 5 minutes of the injection and disappearing after about 30 minutes (SIEGMUND E. A., CADMUS A., LU G., J. Pharmacol. Exp. Therap. 1957, 119, 453). This painful syndrome manifests itself in the animal by a series of characteristic crises, more or less close together and fleeting, during which we can note a twisting or stretching of the body, a hollowing of the sides and a stretching of the hind legs.
It is therefore possible to note the number of crises in a given interval of time.
The preventive administration of analgesic or anti-inflammatory substances prevents the appearance of crises or reduces the frequency thereof.
The reference substance (R) used in the tests was the ester of N-(7-chloro-4 quinolyl) anthranilic acid and 2,3-dihydroxy n.propanol (known under the trademark Galfenine).
It was administered orally with a dose of 25 mg/kg.
The compounds of formula I (X) were administered digestively with a dose of 50 mg/kg.
The interval of time (t) which was chosen to evaluate the analgesic activity was between 10 and 15 minutes which is the period of maximum frequency of the crises. This activity was expressed in the following way:
n: number of crises observed in the control mice;
n': number of crises observed in mice previously treated with the reference substance (R);
n": number of crises observed in mice having received the substance (X).
The percentage activity of R is equal to [formula]
The percentage activity of X is equal to [formula]
The activity of X in relation to that of R is estimated by the ratio [formula]
For example: a compound X for which [formula] is 0.5 has an activity equal to half that of the reference product.

[8] = 1×10^-5 g/ml, coronary flow at climax of activity
[9] = crises between 10 and 15 minutes
[10] = reference product, C (R)=5×10^-4 g/ml

Structure (SMILES)	activation at 10 µg/mL [1, 8] [%]	P (X) / P (R) [1]	inhibition at 25 µg/mL [2] [%]	Ratio of a (X) to a (R), ADRENALINE (head drawn) [2]	Ratio of a (X) to a (R), COLLAGENE (head drawn) [3]	LD50 at 168 h ([4]; po) [mg/kg]	inhibition at 20 µg/mL [3] [%]	IC50 [5] [µg/mL]	ED 50 (R) / ED 50 (X) [5]	Ratio of a (X) to a (R), D.P.A. (head drawn) [6]	inhibition at 25 µg/mL ([6]; C (X)=2.5×10^-5 g/ml) [%]	Analgesic and anti-inflammatory activity, percentage activity a(X) [7, 9] [%]	a(X) / a(R), analgesic and anti-inflammatory activity [7]	also measured
O=C(CCCN1CCOCC1)c1cc2ccccc2s1 [Compound 1, 1-(benzothien-2'-yl)-4-N-morpholino butanone]	28	6.5 × 10^-1	9	1×10^-1	3.3×10^-1	1200								Inhibitory activity of the blood-plaque aggregation, COLLAGENE, a (X) [3]: 12%
C=CCN(CC=C)CCCC(=O)c1cc2ccccc2s1 [Compound 3, 1-(benzothien-2'-yl)-4-N,N-diallylamino butanone oxalate]					1.95×10^-1		13	1.2	2.08	1.7×10^-1	15			
CN(C)CCCC(=O)c1cc2ccccc2s1 [Compound 4]			78	1	4.5×10^-1	950	39							
O=C(CCCN1CCCCC1)c1cc2ccccc2s1 [Compound 5]			84	1.1	1.4×10^-1	1300	12			1.5×10^-1	8			
O=C(CCCN1CCOCC1)c1cc2ccccc2s1 [Compound 6]					3.5×10^-1					1.7×10^-1	15	55	7 × 10^-1	Inhibitory activity of the blood-plaque aggregation, COLLAGENE, a (X) [3]: 32%
CCN(CC)CCCC(=O)c1csc2ccccc12 [Compound 9]			86	1	3×10^-1	> 1200	16		8.10	1.9×10^-1	15	47	1	
CCCN(CCC)CCCC(=O)c1csc2ccccc12 [Compound 11]	41	7.75 × 10^-1	51	5.8×10^-1	3.3×10^-1	1100	12	1.05 (≈ 3.46 µM)	6.2	1.8×10^-1	10	48	6.5 × 10^-1	
CC(C)N(CCCC(=O)c1csc2ccccc12)C(C)C [Compound 12]	33	6.25 × 10^-1	80	9.1×10^-1	2.3×10^-1	500	12	1.35 (≈ 4.45 µM)	4.8		29	68	1.5	
O=C(CCCN1CCCC1)c1csc2ccccc12 [Compound 13]			84	1.1		760		2.25 (≈ 8.23 µM)	1.55	2.3×10^-1	18			
O=C(CCCN1CCCCC1)c1csc2ccccc12 [Compound 14]			42	5.5×10^-1		850						39	5.3 × 10^-1	
O=C(CCCN1CCCCCC1)c1csc2ccccc12 [Compound 15]	172	2.42	82	9.5×10^-1		950		3 (≈ 9.95 µM)	1.6			51	1.13	Inhibitory activity of the blood-plaque aggregation, D.P.A., a (X) ([6]; C (X)=2.5×10^-5 g/ml): 17%
OCCN(CCO)c1nc(N2CCCCC2)c2nc(N(CCO)CCO)nc(N3CCCCC3)c2n1 [Dipyridamole, 2,6-bis (diethanolamino)-4,8-dipiperidinopyrimido[5,4-d]pyramidine, reference compound]														Percentage flow increase P (R) ([1]; reference product, 1×10^-5 g/ml, coronary flow at climax of activity): 43% and 53% and 71%; Inhibitory activity of the blood-plaque aggregation, ADRENALINE, a (R) [2, 10]: 91% and 78% and 86% and 88% and 77%; Inhibitory activity of the blood-plaque aggregation, COLLAGENE, a (R) ([3]; reference product, C (R)=2×10^-4 g/ml): 36%; LD50 at 168 h [4]: 2150 mg/kg; Inhibitory activity of the blood-plaque aggregation, D.P.A., a (R) [6, 10]: 87% and 53% and 79% and 55% and 85%
O=C(OCC(O)CO)c1ccccc1Nc1ccnc2cc(Cl)ccc12 (stereo not shown) [Galfenine, ester of N-(7-chloro-4 quinolyl) anthranilic acid and 2,3-dihydroxy n.propanol, reference compound]														Analgesic and anti-inflammatory activity, percentage activity a(R) ([7]; reference substance, 25 mg/kg orally, crises between 10 and 15 minutes, 25 mg/kg): 75% and 77% and 45% and 74%

Reference: patent US4186136A, “Novel benzothienyl amino (propyl and butyl) ketones, a method of preparation thereof and their application to therapeutics” (priority 1975, dated 1980)
